Assay results from patent US6932960B2, “N-substituted 3-hydroxy-4-pyridinones and pharmaceuticals containing thereof” (Bristol-Myers Squibb Pharma Company, priority 2002, dated 2005).

Legend:
[1] = Zn(II) binding constant (Log KZnL/[Zn][L]), literature values; format: physicochemical; conditions: relative to N-hydroxyacetamide
[2] = Zn(II) binding affinity of the chelator; cited from earlier work

SMILES	Log KZnL/[Zn][L] fold higher than that of N-hydroxyacetamide [1]	Log KZnL/[Zn][L] [2]
Cc1c(O)c(=O)ccn1C [Deferiprone, 1,2-dimethyl-3-hydroxy-4-pyridinone]	about 100 fold	7.19
CC(=O)NO [N-hydroxyacetamide]		< 5
